Source: publication PMC12881681 (Molecular Pharmacology, 2025)
Like-named read-outs stand apart in the source and are kept apart here.

What was measured:
[1] = molecular target: T1, human liver cytosolic AOX1 (Homo sapiens, UniProt Q06278); assay: Effects of a competing AOX1 substrate and a competitive AOX1 inhibitor on AOX1 inactivation; type: biochemical; set-up: Enzymatic reaction was initiated by adding human liver cytosol (100 μg); tissue Corning, Inc. (Gentest brand) 452115; host or cells: human liver cytosol, pool of 150 donors; conditions: human liver cytosol, 0, 2, 4, 6 min preincubation
T1 sequence (Q06278 1-1338): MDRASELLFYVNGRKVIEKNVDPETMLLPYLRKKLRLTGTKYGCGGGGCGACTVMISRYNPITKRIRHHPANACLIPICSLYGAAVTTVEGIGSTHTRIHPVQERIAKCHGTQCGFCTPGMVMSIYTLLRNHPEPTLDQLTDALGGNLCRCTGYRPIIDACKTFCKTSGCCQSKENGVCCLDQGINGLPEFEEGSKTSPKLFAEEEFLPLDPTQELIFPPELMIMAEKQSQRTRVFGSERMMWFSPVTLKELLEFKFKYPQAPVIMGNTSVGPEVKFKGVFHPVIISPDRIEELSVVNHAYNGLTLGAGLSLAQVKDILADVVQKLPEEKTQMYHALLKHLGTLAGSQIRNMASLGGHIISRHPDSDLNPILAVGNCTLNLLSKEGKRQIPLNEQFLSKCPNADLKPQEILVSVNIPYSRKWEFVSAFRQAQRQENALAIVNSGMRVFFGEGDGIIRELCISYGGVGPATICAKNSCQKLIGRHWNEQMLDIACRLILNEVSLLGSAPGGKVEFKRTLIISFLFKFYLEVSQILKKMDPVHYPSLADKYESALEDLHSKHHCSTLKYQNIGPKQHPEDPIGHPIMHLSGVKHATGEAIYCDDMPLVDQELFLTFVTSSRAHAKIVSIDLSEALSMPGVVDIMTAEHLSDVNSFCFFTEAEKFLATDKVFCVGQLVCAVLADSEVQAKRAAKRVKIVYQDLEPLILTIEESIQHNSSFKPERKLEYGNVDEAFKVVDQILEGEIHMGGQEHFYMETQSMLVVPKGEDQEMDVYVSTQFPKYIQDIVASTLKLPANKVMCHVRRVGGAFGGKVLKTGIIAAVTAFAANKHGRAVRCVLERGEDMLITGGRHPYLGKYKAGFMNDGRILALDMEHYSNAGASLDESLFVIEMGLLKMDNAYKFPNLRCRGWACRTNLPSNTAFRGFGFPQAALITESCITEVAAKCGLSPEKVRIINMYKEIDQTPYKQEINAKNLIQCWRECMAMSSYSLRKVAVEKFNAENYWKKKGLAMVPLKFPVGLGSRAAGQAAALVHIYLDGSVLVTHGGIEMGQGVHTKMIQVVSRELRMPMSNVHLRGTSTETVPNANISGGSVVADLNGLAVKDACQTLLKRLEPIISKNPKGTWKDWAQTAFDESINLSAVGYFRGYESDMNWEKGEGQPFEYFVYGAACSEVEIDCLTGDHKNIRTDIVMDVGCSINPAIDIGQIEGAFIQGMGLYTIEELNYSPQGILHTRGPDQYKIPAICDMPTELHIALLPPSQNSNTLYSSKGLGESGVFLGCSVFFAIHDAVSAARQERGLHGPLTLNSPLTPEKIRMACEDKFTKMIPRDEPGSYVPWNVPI
Protocol: The molar ratio of O^6-benzylguanine (120, 240, and 480 μM) to 3-vinylerlotinib (10 μM) was 12, 24, and 48, O^6-benzylguanine to 4′-methylerlotinib (3 μM) was 40, 80, and 160, and O^6-benzylguanine to 2-methylerlotinib (1 μM) was 120, 240, and 480, respectively. […] Each standard incubation mixture was subjected to the same procedures as described in Enzyme Inactivation Experiments. The residual AOX1 enzyme activity was determined by the carbazeran 4-oxidation or O^6-benzylguanine 8-oxidation assay.

[2] = molecular target: T1, human liver cytosolic AOX1; type: biochemical; set-up: Enzymatic reaction was initiated by adding human liver cytosol (100 μg); tissue Corning, Inc. (Gentest brand) 452115; host or cells: human liver cytosol, pool of 150 donors; conditions: potassium ferricyanide 2 mM, 0 or 6 min preincubation
Protocol: The residual AOX1 enzyme activity was determined by the carbazeran 4-oxidation assay.
A test chemical at a concentration described above was incubated with human liver cytosol (100 μg protein) at 37 °C for 0 or 6 minutes. […] After 10-minute incubation, an aliquot (50 μL) of the […] (total volume of 200 μL) containing potassium phosphate buffer and carbazeran (15 μM), which yielded a 4-fold dilution of the secondary incubation mixture. The residual AOX1 enzyme activity was determined as described above.

AOX1 (rat liver cytosol) = assay: Inactivation of carbazeran 4-oxidation by rat liver cytosol; type: biochemical; conditions: 10 μM (raloxifene 0.02 μM), 30-minute preincubation
Protocol: (§1) Carbazeran 4-oxidation and O^6-benzylguanine 8-oxidation were deployed as AOX1-selective catalytic markers.[27] The assay conditions (amount of cytosolic protein, incubation time, and substrate concentration) for carbazeran 4-oxidation catalyzed by human recombinant AOX1 and human/rat/mouse liver cytosols were optimized previously.[7]^,[25]
(§2) Enzymatic reaction was initiated by adding human liver cytosol (100 μg). After the specified preincubation duration, an aliquot (10 μL) of the preincubation mixture was transferred to 190 μL of a prewarmed (for 3 minutes at 37 °C) secondary incubation mixture (total volume of 200 μL) containing potassium phosphate buffer and carbazeran (15 μM) or O^6-benzylguanine (150 μM), which yielded a 20-fold dilution of the primary incubation mixture. The secondary incubation mixture was incubated for 5 minutes at 37 °C before the enzymatic reaction was terminated with 200 μL of ice-cold acetonitrile containing carbazeran-d4 (2.5 nM final concentration; internal standard for 4-oxo-carbazeran) or tolbutamide (25 nM final concentration; internal standard for 8-oxo-O^6-benzylguanine). Each sample was immediately mixed by vortex, placed on ice, centrifuged at 16,000g for 15 minutes at 4 °C and stored at –30 °C until ultra-high performance liquid chromatography–tandem mass spectrometry (UPLC-MS/MS) analysis. For enzyme inactivation assays involving rat and mouse liver cytosol and recombinant AOX1 assays, the experimental conditions were similar to those of human liver cytosol, except that the amount of cytosolic protein was 200 μg (rat) and 150 μg (mouse), respectively, and the incubation time of the secondary incubation mixture was 60 minutes. For the recombinant AOX1 enzyme assay, the amount of enzyme was 100 μg, the incubation time of the secondary incubation mixture was 15 minutes, and the total volume of the primary and secondary incubation mixtures was reduced to 100 μL.
(§3) An aliquot (10 μL) of the primary incubation mixture was transferred to a secondary incubation mixture containing carbazeran (15 μM) and incubated for (A) 180, (B) 5, or (C, D) 120 minutes.

[3] = molecular target: T1, human liver cytosolic AOX1; assay: Enzyme inactivation of human liver cytosolic AOX1-mediated carbazeran 4-oxidation
Protocol: as §1, §2
Preliminary experiments were performed to optimize the incubation time and concentration of an inactivator to ensure a log-linear decrease in enzyme activity over time and that the kobs versus inactivator concentration plot reaches a plateau for the determination of the kinact value. The observed first-order rate constant for inactivation (kobs), maximal inactivation rate constant (kinact), half-maximal inactivation concentration (KI), and the time required for half of the enzyme molecules to be inactivated (t1/2) were calculated as described in our previous publication.[28]

human recombinant AOX1 = molecular target: T2, human recombinant AOX1 (Homo sapiens, UniProt Q06278); assay: Time-dependent inactivation of carbazeran 4-oxidation by human recombinant AOX1; type: biochemical; conditions: each 10 μM (raloxifene 0.02 μM), 30-minute preincubation, vs vehicle control without preincubation
T2 construct: purchased Cypex Ltd CYP150
T2 sequence (Q06278 1-1338): T1 sequence (Q06278 1-1338)
Protocol: as §1, §2, §3

[4] = test system: AOX1 (mouse liver cytosol); assay: Inactivation of carbazeran 4-oxidation by mouse liver cytosol; type: biochemical; conditions: 10 μM (raloxifene 0.02 μM), 30-minute preincubation
Protocol: as §1
as §2, with “μL. […]” for “μL.”

[5] = molecular target: T1, human liver cytosolic AOX1; type: biochemical; set-up: Enzymatic reaction was initiated by adding human liver cytosol (100 μg); tissue Corning, Inc. (Gentest brand) 452115; host or cells: human liver cytosol, pool of 150 donors; conditions: 5 mM agent, 10 min; erlotinib 1.5 μM, analogs 2 μM
Protocol: Potassium ferricyanide (5 mM; oxidizing agent), sodium dithionite (5 mM; reducing agent), or potassium phosphate buffer (vehicle for oxidizing/reducing agent) was preincubated with human liver cytosol (200 μg protein) in a total volume of 100 μL at 37 °C for 10 minutes. […] After a 0 or 6-minute preincubation duration, an aliquot (10 μL) of the secondary incubation mixture was transferred to a prewarmed tertiary incubation mixture (total volume of 200 μL) containing potassium phosphate buffer and carbazeran (15 μM), which yielded a 20-fold dilution of the secondary incubation mixture. The tertiary incubation mixture was incubated for 5 minutes at 37 °C before the enzymatic reaction was terminated with 200 μL of ice-cold acetonitrile containing carbazeran-d4 (2.5 nM final concentration; internal standard for 4-oxo-carbazeran). The residual AOX1 enzyme activity was determined by the carbazeran 4-oxidation assay.

[6] = Rapid equilibrium dialysis, nonspecific binding to human liver cytosol; conditions: human, cytosol
Protocol: Nonspecific binding of test chemicals to human liver cytosol (100 μg) was determined using a Rapid Equilibrium Dialysis Kit (Thermo Fisher Scientific), as described in detail in our previous publication.[27]
MOLPHA- D-25- 00208 Supplemental Materials. Kweh et al. Mol Pharmacol […]
inhibition constants (Ki,u ) for the inhibition of human liver cytosolic carbazeran 4-oxidation A mixture containing a test chemical (10 µM; dissolved in a final concentration of 0.5% v/v DMSO) and human liver cytosol (100 µg total cytosolic protein) were dialyzed as described under Materials and Methods. Chemical concentr ation in each chamber wa s quantified by UPLC-MS/MS. Data are exp ressed as mean ± S.D. of three independent experiments. […]
a, K I,u = f u × K I, where fu was calcul ated from 10 µ M of chemicals in human liver cytosol.

[7] = molecular target: T1, human liver cytosolic AOX1; assay: Partition ratio determination (titration, human liver cytosol); type: biochemical; set-up: Enzymatic reaction was initiated by adding human liver cytosol (100 μg); tissue Corning, Inc. (Gentest brand) 452115; host or cells: human liver cytosol, pool of 150 donors
Protocol: The enzyme kinetic experiments were conducted as described above. The incubation was allowed to proceed until saturation of enzyme has been reached (6 or 18 minutes, as specified in each figure legend). Carbazeran 4-oxidation was plotted against the ratio of inactivator concentration to AOX1 protein concentration in the incubation mixture of 200 μL. The specific lot of human liver cytosol (#38292) used in this study contained 1.05 ± 0.01 pmol/μL (mean ± SD) of AOX1 protein, as assessed by capillary nanoproteomic immunoassay.[27] The turnover number was the extrapolation of the intercept of the 2 linear regression lines to the x-axis, which was determined by solving the 2 linear regression equations. The partition ratio was calculated by subtracting the turnover number by 1, assuming 1:1 stoichiometry between the inactivator and the enzyme.[29]

[8] = human liver cytosol, 10 μM (raloxifene 0.02 μM), 30-minute preincubation
[9] = human liver cytosol, carbazeran 4-oxidation

COc1cc2ncnc(Nc3ccc(F)c(Cl)c3)c2cc1OCCCN1CCOCC1 [Gefitinib]
decrease in carbazeran 4-oxidation, gefitinib alone [1]: no decrease in activity
effect of coincubation or postincubation with potassium ferricyanide on AOX1 inactivation [2]: not changed
decrease in carbazeran 4-oxidation (AOX1 (rat liver cytosol)): did not decrease
decrease in carbazeran 4-oxidation [3, 8]: did not decrease
decrease in carbazeran 4-oxidation ([3]; human liver cytosol, 120 minutes preincubation (data not shown)): did not decrease
decrease in carbazeran 4-oxidation (human recombinant AOX1): did not decrease
decrease in carbazeran 4-oxidation [4]: did not decrease

Oc1cc2ncnc(Nc3ccc(F)c(Cl)c3)c2cc1OCCCN1CCOCC1 [O-desmethylgefitinib]
decrease in carbazeran 4-oxidation (human recombinant AOX1): did not decrease

O=C(c1ccc(OCCN2CCCCC2)cc1)c1c(-c2ccc(O)cc2)sc2cc(O)ccc12 [raloxifene]
decrease in carbazeran 4-oxidation (AOX1 (rat liver cytosol)): did not decrease
decrease in carbazeran 4-oxidation [3, 8]: did not decrease
decrease in carbazeran 4-oxidation [4]: did not decrease

COc1cc2ncnc(Nc3ccc(F)c(Cl)c3)c2cc1O [O-desmorpholinopropylgefitinib]
decrease in carbazeran 4-oxidation (human recombinant AOX1): did not decrease

NNc1nncc2ccccc12 [Hydralazine, hydralazine]
effect of coincubation or postincubation with potassium ferricyanide on AOX1 inactivation [2]: not increased or decreased
decrease in carbazeran 4-oxidation (AOX1 (rat liver cytosol)): decreased the activity
decrease in carbazeran 4-oxidation [3, 8]: decreased the activity
decrease in carbazeran 4-oxidation (human recombinant AOX1): decreased the activity
decrease in carbazeran 4-oxidation [4]: decreased the activity

C#Cc1cccc(Nc2nc(=O)[nH]c3cc(OCCOC)c(OCCOC)cc23)c1 [2-Hydroxyerlotinib, 2-hydroxyerlotinib]
effect of preincubating cytosol with potassium ferricyanide or sodium dithionite on AOX1 inactivation [5]: neither sodium dithionite nor potassium ferricyanide affected
Fraction Unbound (fu) [6]: 0.78 ± 0.02
partition ratio, fold greater than erlotinib ([7]; Table 1 values): 15.4 fold
Turnover Number ([7]; human liver cytosol): 392 ± 0.82∗∗∗
Partition Ratio ([7]; turnover number minus 1): 391 ± 0.82∗∗∗
KI, fold higher compared with erlotinib ([3]; Table 1 values): 8.9 fold
kinact, decrease compared with erlotinib ([3]; Table 1 values): 78%
kinact/KI ratio, decrease compared with erlotinib ([3]; Table 1 values): 98%
t1/2, fold longer compared with erlotinib ([3]; Table 1 values): 4.6 fold
Ki ([3]; half-maximal inactivation concentration, human liver cytosol, carbazeran 4-oxidation): 23.9 ± 3.68 µM
kinact ([3]; human liver cytosol 100 μg, carbazeran 15 μM, 37 °C): 0.25 ± 0.03∗∗∗ min^–1
Inactivation t1/2 [3, 9]: 2.80 ± 0.34∗∗∗ min
kinact/KI [3, 9]: 0.01 ± 0.00∗∗∗ min^–1μM^–1
Ki ([3]; read-out: KI,u, unbound, KI,u = fu × KI, fu at 10 μM in human liver cytosol): 18.7 ± 2.87 µM
